Experimental data: US20210338842A1, “DUAL-MODALITY NANOPROBE TARGETING GLIOBLASTOMA AND PREPARATION METHOD THEREOF” (West China Hospital of Sichuan University, priority 2020, published 2021)

Experiment: Evaluation of restricted permeability of in vitro BBB model with fluorescein sodium (Transwell)
Type: in vitro ADME, mouse
Details: NaFl 10 μg/mL in upper chamber, read-out: permeability coefficient Papp
Experimental: Experimental method: an in vitro blood-brain barrier model was established to evaluate the permeability of dual-modality nanoprobes. U87-MG cells and bEnd.3 cells were cultured in high glucose DMEM containing 10% fetal bovine serum and 1% penicillin/streptomycin at 37° C. and 5% CO2. A thin layer of collagen solution was evenly coated on the inner side of Transwell poly microporous lipid membrane, the membrane was placed on an ultra-clean table for about 30 min, and it was used after naturally dried. bEnd.3 cells were inoculated into the upper chamber of a 24-well Transwell at a density of 5×10^4 cells/well. Two days later, U87-MG cells were inoculated into the lower chamber of the upper chamber at a density of 1×10^5 cells/well, and the two kind of cells were continued to co-culture for one week.
The permeability of BBB in vitro was evaluated by fluorescein sodium, and a series of standard solutions of fluorescein sodium (NaFl) were prepared with PBS, with the concentrations of 0.05, 0.10, 0.15, 0.20, 0.25, 0.30, 0.35, 0.40, 0.45 and 0.50 μg/mL, respectively. The absorbance value was measured with a multifunctional ELISA reader (the excitation wavelength was set at 485 nm and the detection wavelength was 535 nm). Then the standard curve of NaFl concentration and absorbance value was made. […]

- Papp A→B at 10 μg/mL (mouse, BBB model group, 30, 60, 90 min): 11.2 ± 0.73 ×10⁻⁶ cm/s
- Papp at 10 μg/mL (small blank chamber (no cells)): 67.8 ×10⁻⁶ cm/s
Compound: O=C1OC2(c3ccc(O)cc3Oc3cc(O)ccc32)c2ccccc21 [NaFl, Fluorescein sodium]
